For data set [1], the system named is Human immunodeficiency virus 1. It is filed as functional, organism-based, HEK293T.
In data set [2] the test system is Human immunodeficiency virus 1. Nature of the data set: Antiviral activity against VSVG/HIV-1 harboring reverse transcriptase L100I/K103N double mutant infected in human HEK 293T cells assessed as inhibition of virus replication preincubated with cells for 15 mins prior to viral infection and measured at 48 hrs post-infection by luciferase reporter gene assay. The format is functional, organism-based. The conditions noted are these: hek293t.

In data set [3] the test system is Human immunodeficiency virus 1. The format is functional, organism-based, HEK293T. This is another data set of the same source.
Data set [4] concerns HEK-293T. Nature of the data set: Cytotoxicity against human HEK 293T cells assessed as reduction in cell viability measured after 48 hrs by Celltiter-glo assay. It is filed as cell-based.
The subject of data set [5] is Human immunodeficiency virus 1. In words: Antiviral activity against VSVG/HIV-1 harboring reverse transcriptase V108I/K103N double mutant infected in human HEK 293T cells assessed as inhibition of virus replication preincubated with cells for 15 mins prior to viral infection and measured at 48 hrs post-infection by luciferase reporter gene assay. It is filed as functional, organism-based, HEK293T. A general note: A reporter such as luciferase makes a cellular process visible.

Data set [6] can be described thus: Inhibition of HIV-1 reverse transcriptase RNA-dependent DNA polymerase activity assessed as reduction in dTTP incorporation using poly(rA)/oligo(dT) as template/primer incubated for 1 hr followed by transferring into streptavidin plate for 1 hr by absorbance based analysis. Further details: species or system Human immunodeficiency virus 1.
In data set [7] the test system is Human immunodeficiency virus 1. Nature of the data set: Antiviral activity against VSVG/HIV-1 harboring reverse transcriptase K103N mutant infected in human HEK 293T cells assessed as inhibition of virus replication preincubated with cells for 15 mins prior to viral infection and measured at 48 hrs post-infection by luciferase reporter gene assay. The format is functional, organism-based, HEK293T.

Data set [8] deals with Human immunodeficiency virus 1. Nature of the data set: Antiviral activity against VSVG/wild-type HIV-1 infected in human HEK 293T cells assessed as inhibition of virus replication preincubated with cells for 15 mins prior to viral infection and measured at 48 hrs post-infection by luciferase reporter gene assay. It is filed as functional, organism-based, HEK293T. The conditions noted are these: Human immunodeficiency virus 1, HEK-293T.

Data set [9] has as its system Human immunodeficiency virus 1. The format is functional, organism-based, HEK293T. The source holds these as a separate data set.
Data set [10] can be described thus: Inhibition of RNase H activity of HIV-1 reverse transcriptase using DNA/RNA hybrid as substrate incubated for 30 mins by fluorescence based analysis. Details: species or system Human immunodeficiency virus 1.
The test system of data set [11] is Human immunodeficiency virus 1. Nature of the data set: Antiviral activity against VSVG/HIV-1 harboring reverse transcriptase G190A/K103N double mutant infected in human HEK 293T cells assessed as inhibition of virus replication preincubated with cells for 15 mins prior to viral infection and measured at 48 hrs post-infection by luciferase reporter gene assay. It is filed as functional, organism-based, HEK293T.

For data set [12], the system named is Human immunodeficiency virus 1. In words: Antiviral activity against VSVG/wild-type HIV-1 infected in human HEK 293T cells assessed as time during which compound exhibits 50% virologic failure at 1 uM treated at post-viral infection and measured at 48 hrs post-infection by luciferase reporter gene assay. The format is functional, HEK293T.
The subject of data set [13] is HEK-293T. In words: Cytotoxicity against human HEK 293T cells assessed as cell viability at 30 uM measured after 48 hrs by Celltiter-glo assay. The format is cell-based. On the technique in general: In ATP-based viability assays light output follows the ATP content of the culture.
Data set [14] in a line: Selectivity index, ratio of CC50 for human HEK 293T cells to EC50 for VSVG/wild type HIV1 infected in human HEK 293T cells. The format is toxicity, cell-based. As to conditions: read-out: Ratio CC50/EC50.
The mark [15] stands for this setting: Human immunodeficiency virus 1, HEK-293T.

SMILES strings stand for the structures.

With `CCCOn1cc(CC(=O)Nc2ccccc2Cl)c2ccccc21`, the EC50 (usually the concentration at which the effect is half-maximal) is > 10000 nM in data set [1] (setting [15]); 8950 nM in data set [2]; 2130 nM in [3] (hek293t); > 10000 nM in data set [5] (setting [15]); > 10000 nM in data set [7] (setting [15]); 290 nM in [8]. In addition, the concentration for a half-maximal effect (EC50) in data set [9] (setting [15]) and in data set [11] (setting [15]) was > 10000 nM in each case. The CC50 – broadly, the concentration at which the toxic effect on the cells reaches its halfway point – in [4] was 29.5 µM. In addition, the IC50 – broadly, the concentration that gives 50% inhibition – in data set [6] is 270 nM; in data set [10] it was > 100 µM.
Take `Cc1nnc(C(=O)NC(C)(C)c2nc(C(=O)NCc3ccc(F)cc3)c(O)c(=O)n2C)o1`: the FT50 in data set [12] came to 12.2 h.
The same measure, in the same setting: in the case of `Cc1cn([C@H]2C[C@H](N=[N+]=[N-])[C@@H](CO)O2)c(=O)[nH]c1=O` [ZIDOVUDINE] it was 8.5 h.
Consider `CCCOn1cc(CC(=O)Nc2ccncc2Cl)c2ccccc21`, for which the EC50 in data set [2] amounted to 1180 nM; in [3] (hek293t) it was 180 nM; in [5] (hek293t) it was 1270 nM; in data set [7] (setting [15]), 700 nM; in [8], 60 nM; in data set [9] (hek293t), 1850 nM. Moreover, the 50% effective concentration (EC50) in [11] (hek293t) came to 1380 nM. Further, the 50% cytotoxic concentration (CC50) in [4] turned out to be 16.4 µM. In addition, the 50% inhibitory concentration (IC50) is 110 nM in [6] and > 100 µM in data set [10].
In the case of `COC(=O)c1ccccc1NC(=O)Cc1cn(OC)c2ccccc12`, the IC50 in data set [10] is > 30 µM.
On to `CCCCCCOn1cc(CC(=O)Nc2ccccc2Cl)c2ccccc21`, for which the Activity in data set [13] is reported as 56.95%. Besides, in data set [14], the selectivity ratio is > 29.4. Further, the 50% cytotoxic concentration (CC50) in data set [4] is > 30 µM. In [8], the 50% effective concentration (EC50) turned out to be 1020 nM.
Take `CCOn1cc(CC(=O)Nc2ccccc2C(=O)OC)c2ccccc21`: the Activity in [13] is recorded as 52.76%. Also, the selectivity ratio in [14] is > 5.26. For the same compound, in [4], the CC50 is > 30 µM. Besides, the EC50 in data set [8] is 5700 nM.
`CCCCOn1cc(CC(=O)Nc2ccncc2Cl)c2ccccc21`: the EC50 was 1420 nM in data set [1] (hek293t); 430 nM in data set [2]; 40 nM in data set [3] (setting [15]); 560 nM in [5] (hek293t); 40 nM in [8]; 700 nM in data set [11] (setting [15]). For the same compound, the CC50 in [4] was determined as 22.1 µM. Moreover, the IC50 was 80 nM in [6] and > 100 µM in data set [10].
`COn1cc(CC(=O)Nc2ccccc2I)c2ccccc21`: in data set [13], the Activity was 67.04%. In [14], the selectivity ratio is > 6.82. The half-maximal cytotoxic concentration (CC50) in data set [4] was > 30 µM. In addition, the EC50 in data set [8] was determined as 4400 nM.
The corresponding values for `O=C(Cc1cn(OCCc2ccccc2)c2ccccc12)Nc1ccccc1Cl` are 49.31%, > 5.45, > 30 µM and 5500 nM.
Regarding `O=C1Nc2ccc(Cl)cc2[C@@](C#CC2CC2)(C(F)(F)F)O1` [EFAVIRENZ], the EC50 in data set [1] (hek293t) was 120 nM; in data set [2], 1080 nM; in data set [3] (setting [15]), 2 nM; in [5] (setting [15]), 60 nM; in data set [7] (setting [15]), 30 nM; in data set [9] (setting [15]), 50 nM. The EC50 in data set [11] (hek293t) was 180 nM. Also, the CC50 in data set [4] is 23.7 µM. Also, the FT50 in [12] was found to be 9.4 h.
In the case of `Cc1ccnc2c1NC(=O)c1cccnc1N2C1CC1` [NEVIRAPINE], the EC50 in data set [1] (setting [15]) was > 100000 nM; in data set [2], 760 nM; in data set [5] (hek293t), 2870 nM; in data set [7] (hek293t) it was 1400 nM; in data set [9] (setting [15]) it was 80000 nM; in [11] (hek293t) it was 14600 nM. The Activity in data set [13] stood at 93.26%. The CC50 in [4] is > 30 µM.

Source of the values: ChEMBL document CHEMBL4765253, “Discovery, synthesis, and optimization of an N-alkoxy indolylacetamide against HIV-1 carrying NNRTI-resistant mutations from the Isatis indigotica root” (Eur J Med Chem, 2020).
